Read-outs that look alike come from different tables or passages of the source.
Legend:
[1] = molecular target: 5-HT3 receptors, human hippocampus; parameters: method as in Wong et al., 1995; conditions: ref Wong et al., 1995; cited from earlier work
[2] = test system: 5-HT3 receptors, NG108-15 cells; parameters: method as in Wong et al., 1995; conditions: ref Wong et al., 1995; cited from earlier work
5-HT3A receptors [3] = molecular target: T1, 5-HT3A receptors (Homo sapiens, UniProt P46098); experiment: Radioligand association and dissociation kinetics, HEK293 membranes; format: binding; parameters: dissociation k−1 (mean ± S.E.M): unit: h−1
T1 construct: expressed in transfected cells; host or cells: HEK293
T1 sequence (P46098 24-478): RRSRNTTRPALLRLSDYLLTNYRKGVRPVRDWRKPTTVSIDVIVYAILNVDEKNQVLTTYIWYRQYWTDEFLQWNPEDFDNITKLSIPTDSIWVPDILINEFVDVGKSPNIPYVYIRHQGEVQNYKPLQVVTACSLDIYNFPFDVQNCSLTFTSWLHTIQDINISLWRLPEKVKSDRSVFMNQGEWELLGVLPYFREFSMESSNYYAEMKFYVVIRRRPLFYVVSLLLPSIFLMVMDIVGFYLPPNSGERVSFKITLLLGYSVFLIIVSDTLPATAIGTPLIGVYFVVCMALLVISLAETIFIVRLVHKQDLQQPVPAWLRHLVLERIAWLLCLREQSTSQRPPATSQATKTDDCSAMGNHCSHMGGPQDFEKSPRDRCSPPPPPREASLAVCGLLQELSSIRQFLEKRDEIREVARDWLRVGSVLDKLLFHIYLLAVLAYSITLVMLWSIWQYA
Description: (§1) Human embryonic kidney (HEK) 293 cells were maintained on 90 mm tissue culture plates at 37 °C and 7% CO2 in a humidified atmosphere. They were cultured in DMEM:F12 (Dulbecco's Modified Eagle Medium/Nutrient Mix F12 (1:1)) with GlutaMAX™ I media containing 10% foetal calf serum and passaged when confluent. For radioligand binding studies cells in 90 mm dishes were transfected using PEI and incubated for 3–4 days before use. For functional studies cells were plated on 96 well plates, transfected using the Neon transfection system (Invitrogen) and incubated 1–2 days before assay. Mutagenesis reactions were performed using QuikChange (Agilent Technologies Inc., CA, USA) using human 5-HT3A or 5-HT3B receptor subunit cDNA (accession numbers: P46098 or O95264) in pcDNA3.1 (Invitrogen, Paisley, UK). Subunit numberings have been altered to the aligning residues in the mouse 5-HT3A receptor.
(§2) Briefly, transfected HEK293 cells were washed twice with phosphate buffered saline (PBS) at room temperature and scraped into 1 ml of ice-cold HEPES buffer (10 mM, pH 7.4) containing the following proteinase inhibitors (PI): 1 mM EDTA, 50 μg ml^−1 soybean trypsin inhibitor, 50 μg/ml bacitracin and 0.1 mM phenylmethylsulphonyl fluoride. […] Non-specific binding was determined using 10 μM quipazine. […] All samples were terminated by vacuum filtration using a Brandel cell harvester onto GF/B filters pre-soaked in 0.3% polyethyleneimine. Radioactivity was determined by scintillation counting using a Beckman LS6000SC (Fullerton, California, USA).
(§3) Data were analysed by iterative curve fitting using Prism software (GraphPad, San Diego, California, USA). Determination of Ki values was performed using the Cheng–Prusoff equation. Values are presented as mean ± SEM, n = 3–6.

5-HT3AB receptors [4] = molecular target: T2, 5-HT3AB receptors (Homo sapiens, UniProt P46098); experiment: as above; format: binding; parameters: dissociation k−1 (mean ± S.E.M): unit not given here
T2 construct: expressed in transfected cells; host or cells: HEK293
T2 sequence (P46098 24-478): T1 sequence (P46098 24-478)
T2 sequence (O95264 22-441 partner): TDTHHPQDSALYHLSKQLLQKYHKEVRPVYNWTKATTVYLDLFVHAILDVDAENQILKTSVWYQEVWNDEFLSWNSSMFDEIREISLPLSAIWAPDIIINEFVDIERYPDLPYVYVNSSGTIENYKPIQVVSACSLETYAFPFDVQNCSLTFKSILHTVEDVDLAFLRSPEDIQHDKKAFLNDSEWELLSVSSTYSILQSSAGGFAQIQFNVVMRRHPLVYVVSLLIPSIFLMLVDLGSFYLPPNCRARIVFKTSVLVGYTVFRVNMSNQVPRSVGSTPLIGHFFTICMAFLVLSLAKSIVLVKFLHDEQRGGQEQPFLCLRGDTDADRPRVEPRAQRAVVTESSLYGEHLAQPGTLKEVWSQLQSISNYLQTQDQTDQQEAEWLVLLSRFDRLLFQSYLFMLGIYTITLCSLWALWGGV
Description: as §1, §2, §3

5-HT3AB receptors [5] = molecular target: T2, 5-HT3AB receptors; experiment: Flexstation membrane potential dye assay, inhibition of 5-HT-induced responses; format: cell-based; conditions: for relative Fmax: relative to 0 palonosetron (100%), typical example; for IC50: palonosetron preincubated 45 min before 5-HT, HEK293 cells
Description: as §1
(§4) Fluorescence was measured in a FLEXstation™ (Molecular Devices Ltd., Wokingham, UK) every 2 s for 200 s using the acquisition software SOFTmax® PRO v4.3.
as §3

5-HT3A receptors [6] = molecular target: T1, 5-HT3A receptors; experiment: as above; format: cell-based; conditions: for relative Fmax: relative to 0 palonosetron (100%), typical example; for IC50: HEK293 cells
Description: as §1, §4, §3

[7] = test system: 5-HT3 receptors, transfected HEK293 cells; parameters: method as in Rojas et al., 2008; conditions: ref Rojas et al., 2008; cited from earlier work
5-HT3 receptors = test system: 5-HT3 receptors; parameters: method as in Wong et al., 1995; conditions: ref Wong et al., 1995, cited from earlier work
[8] = molecular target: T3, 5-HT3 receptors expressed in oocytes (Homo sapiens, UniProt P46098); experiment: Recovery from palonosetron inhibition after washout in oocytes; format: cell-based; conditions: after a 10 min wash; data not shown
T3 sequence (P46098 24-478): T1 sequence (P46098 24-478)

5-HT3AB receptors [9] = molecular target: T2, 5-HT3AB receptors; experiment: [3H]granisetron competition binding, HEK293 membranes; conditions: displacement of [3H]granisetron
Description: as §1, §2, §3

5-HT3A receptors [10] = molecular target: T1, 5-HT3A receptors; experiment: as above; conditions: displacement of [3H]granisetron
Description: as §1, §2, §3

[11] = test system: 5-HT3 receptor-expressing HEK293 cells; conditions: cited from earlier work; for [3H]palonosetron remaining: ref Rojas et al., 2010
5-HT3AB receptors [12] = molecular target: T2, 5-HT3AB receptors; experiment: [3H]palonosetron saturation binding, HEK293 membranes; conditions: 24 h, 4 °C
Description: (§5) Human embryonic kidney (HEK) 293 cells were maintained on 90 mm tissue culture plates at 37 °C and 7% CO2 in a humidified atmosphere. They were cultured in DMEM:F12 (Dulbecco's Modified Eagle Medium/Nutrient Mix F12 (1:1)) with GlutaMAX™ I media containing 10% foetal calf serum and passaged when confluent. For radioligand binding studies cells in 90 mm dishes were transfected using PEI and incubated for 3–4 days before use. For functional studies cells were plated on 96 well plates, transfected using the Neon transfection system (Invitrogen) and incubated 1–2 days before assay. […]
(§6) Briefly, transfected HEK293 cells were washed twice with phosphate buffered saline (PBS) at room temperature and scraped into 1 ml of ice-cold HEPES buffer (10 mM, pH 7.4) containing the following proteinase inhibitors (PI): 1 mM EDTA, 50 μg ml^−1 soybean trypsin inhibitor, 50 μg/ml bacitracin and 0.1 mM phenylmethylsulphonyl fluoride. […] Non-specific binding was determined using 10 μM quipazine. […] Radioactivity was determined by scintillation counting using a Beckman LS6000SC (Fullerton, California, USA).
(§7) Data were analysed by iterative curve fitting using Prism software (GraphPad, San Diego, California, USA). […]

5-HT3A receptors [13] = molecular target: T1, 5-HT3A receptors; experiment: as above; conditions: 24 h, 4 °C
Description: as §5, §6, §7

[14] = agonist-induced dissociation (5-HT or quipazine)
[15] = displacing ligand MDL72222 (1 μM)
[16] = displacing ligand unlabelled palonosetron (100 nM)
[17] = displacing ligand 5-HT (100 μM)
[18] = displacing ligand quipazine (10 μM)

Compound: O=C1c2cccc3c2[C@H](CCC3)CN1[C@@H]1CN2CCC1CC2 [Palonosetron, palonosetron]
- Kd [1]: 150 pM
- Kd [2]: 50 pM
- dissociation t1/2 (5-HT3A receptors [3]; [14]): > 10 h
- dissociation t1/2 (5-HT3A receptors [3]; [15]): 2.3 h
- dissociation t1/2 (5-HT3A receptors [3]; [16]): 1.5 h
- dissociation t1/2 (5-HT3AB receptors [4]; [14]): > 10 h
- dissociation t1/2 (5-HT3AB receptors [4]; [15]): 1.7 h
- dissociation t1/2 (5-HT3AB receptors [4]; [16]): 1.0 h
- relative Fmax (5-HT3AB receptors [5]; 0.1 nM palonosetron): 62%
- relative Fmax (5-HT3AB receptors [5]; 0.3 nM palonosetron): 28%
- IC50 (5-HT3AB receptors [5]; read-out: IC50): 180 pM
- IC50 (5-HT3AB receptors [5]; read-out: pIC50 (converted)): 186 pM
- relative Fmax (5-HT3A receptors [6]; 0.1 nM palonosetron): 70%
- relative Fmax (5-HT3A receptors [6]; 0.3 nM palonosetron): 40%
- IC50 (5-HT3A receptors [6]; palonosetron co-applied with 5-HT, read-out: IC50): 83000 pM
- IC50 (5-HT3A receptors [6]; palonosetron preincubated 45 min before 5-HT, read-out: IC50): 240 pM
- IC50 (5-HT3A receptors [6]; palonosetron preincubated 45 min before 5-HT, read-out: pIC50 (converted)): 245 pM
- Kd [7]: 200 pM
- dissociation t½ (5-HT3 receptors; previous studies): 8 to 10 min
- original response recovered after washout [8]: < 10%
- IC50 (5-HT3AB receptors [9]; 4 °C): 710 pM
- Ki (5-HT3AB receptors [9]; Cheng–Prusoff): 350 pM
- IC50 (5-HT3A receptors [10]; 4 °C): 600 pM
- Ki (5-HT3A receptors [10]; Cheng–Prusoff): 300 pM

Compound: O=C1c2cccc3c2[C@H](CCC3)CN1[C@@H]1CN2CCC1CC2 [[^3H]palonosetron]
- [3H]palonosetron remaining associated ([11]; HEK293 cells after a 2.5 h wash, ref Rojas et al. (2008)): 53 ± 11%
- [3H]palonosetron remaining ([11]; cell-free membrane preparation after a 60 min wash): 2%
- [3H]palonosetron remaining ([11]; cells after a 60 min wash): 65%
- association k (5-HT3A receptors [3]): 0.16 ± 0.03
- association t1/2 (5-HT3A receptors [3]): 4.1 min
- [3H]palonosetron remaining (5-HT3A receptors [3]; after 2 h dissociation in the presence of MDL72222): 67 ± 7%
- dissociation k−1 (mean ± S.E.M) (5-HT3A receptors [3]; [17]): 0.032 ± 0.005
- dissociation t1/2 (5-HT3A receptors [3]; [17]): 21.9 h
- dissociation k−1 (mean ± S.E.M) (5-HT3A receptors [3]; [15]): 0.29 ± 0.03
- dissociation k−1 (mean ± S.E.M) (5-HT3A receptors [3]; [18]): 0.056 ± 0.003
- dissociation t1/2 (5-HT3A receptors [3]; [18]): 12.5 h
- dissociation k−1 (mean ± S.E.M) (5-HT3A receptors [3]; [16]): 0.44 ± 0.05
- dissociation t1/2 (5-HT3A receptors [3]; [16]): 1.5 h
- association k (5-HT3AB receptors [4]): 0.35 ± 0.06
- association t1/2 (5-HT3AB receptors [4]): 2.0 min
- dissociation k−1 (mean ± S.E.M) (5-HT3AB receptors [4]; [17]): 0.057 ± 0.008
- dissociation t1/2 (5-HT3AB receptors [4]; [17]): 12.1 h
- dissociation k−1 (mean ± S.E.M) (5-HT3AB receptors [4]; [15]): 0.41 ± 0.04
- dissociation k−1 (mean ± S.E.M) (5-HT3AB receptors [4]; [18]): 0.068 ± 0.003
- dissociation t1/2 (5-HT3AB receptors [4]; [18]): 10.1 h
- dissociation k−1 (mean ± S.E.M) (5-HT3AB receptors [4]; [16]): 0.68 ± 0.08
- Kd (5-HT3AB receptors [12]): 150 pM
- Kd (5-HT3A receptors [13]): 340 pM
- time to complete association (5-HT3 receptors; previously reported): under 10 min

Source: paper PMC3778450, “Agonists and antagonists induce different palonosetron dissociation rates in 5-HT3A and 5-HT3AB receptors^” (Neuropharmacology, 2013)
